Test results taken from patent US4731471A, “(5,6-dichloro-3-oxo-2,3,9,9a-tetrahydrofluoren-7-yl)-alkanoic acids and alkanimidamides bearing novel functional 9a-substituents” (Merck & Co., Inc., priority 1986, dated 1988).

Tests used:
[1] = test system: cerebrocartical tissue slices from cats; assay: in vitro cat cerebrocortical tissue slice assay (HCO3^- -stimulated swelling); conditions: Felis catus, racemate
Excerpt: This assay is described in detail in articles by: Cragoe, E. J., Jr.; Gould, N. P.; Woltersdorf, O. W., Jr.; Ziegler, C.: Bourke, R. S.; Nelson, L. R.; Kimelberg, H. K.; Waldman, J. B.; Popp, A. J.; Sedransk, N. J. Med. Chem. 1982, 25, 567, and by Rourke, R. S.: Kimelberg, H. K.; Daze, M.; Church, G. Neurochem. Res. 1983, 8, 5.
Cat pial surface slices (~0.5 mm thick) were cut from the cerebral convexities using a Stadie-Riggs microtome without any moistening. Each slice was then weighed on a torsion balance and immediately placed in a Warburg flask containing 2 mL incubation medium at room temperature (22° C.).
The basic composition of the incubation medium in mmol/l was: KCl, 27; NaCl, 100; glucose, 10; KH2 PO4, 1.2: MgSO4, 1.2; CaCl2, 1.3; HEPES (N-2-hydroxyethylpiperazine-N'-2-ethanesulfonic acid (Sigma)). This solution was titrated with NaOH to pH 7.8, and saturated with oxygen by bubbling the gas through the solution.
To obtain HCO3^- dependent swelling, a solution of NaHCO3 in the above medium was added from the side-arm of the flask to slices which had been incubated in 2 mL of medium without added HCO3 at 37° C. for 20 minutes to achieve a final concentration of 5 mmol. The slices were then incubated for an additional 40 minutes. For control experiments,0.5 mL of the medium without HCO3^- was similarly added from the side-arm. Inhibitors, when used, were present with the slices throughout the 60 minute incubation period. After 60 minutes, the tissue slices were separated from the medium by careful vacuum filtration, re-weighed, and then homogenized (10% w/v suspension) in 1N perchloric acid and then centrifuged. The supernatant was then assayed for electrolytes as previously described.
The tissue content of electrolytes is always expressed as micromoles per gram of the initial wet weight. Percent swelling was calculated as (final wet weight minus initial wet weight/initial wet weight)×100 and HCO3^- dependent swelling would be the increased swelling of slices due to added HCO3^- in media containing 28-29 mmol K^+. Such HCO3^- stimulated swelling is not seen in medium with a normal K^+ concentration (4 to 5 mmol).
The (1) in vitro cat cerebrocortical tissue slice assay, (2) the in vitro primary rat astrocyte culture assay and (3) the in vivo cat head injury assay. The first assay, the in vitro cat cerebrocortical tissue slice assay has been described by Marshall, L. F.; Shapiro, H. M.; Smith, R. W. In "Seminars in Neurological Surgery: Neural Trauma"; Popp, A. J.; Bourke, R. S.; Nelson, L. R.; Kimelberg, H, K,. Eds.; Raven Press: New York, 1979; p. 347, by Bourke, R. S.; Kimelberg, H, K.; Daze, M. A. in Brain Res. 1978, 154, 196, and by Bourke, R. S.; Kimelberg, H. K,; Nelson, L. R. in Brain Res. 1976, 105, 309. This method constitutes a rapid and accurate method of determining the intrinsic chloride inhibitory properties of the compounds of the invention in the target tissue.
Using in vitro cat cerebrocortical tissue slice assay, described in Example 1, compounds of the present invention can be tested for activity. This test provides the principal in vitro evaluation and consists of a determination of concentration vs. response curve. The addition of HCO3^- to isotonic, K^+ -rich saline-glucose incubation media is known to specifically stimulate the transport of Cl^- coupled with Na^+ and an osmotic equivalent of water in incubating slices of mammalian cerebral cortex. […] After addition of drug to the incubation media, detailed drug concentration-response curves are then obtained. The data are expressed as percent HCO3^- -stimulated swelling vs. drug concentration, from which the concentration of drug providing 50% inhibition of HCO3^- -stimulated swelling (I50 in molarity) is interpolated.
Adult cats of 2-3 kg body weight are employed in tissue slice studies. Prior to sacrifice, the animals are anesthetized with ketamine hydrochloride (Ketaset), 10 mg/kg intramuscularly. […]

[2] = test system: clinical cases of head injury; conditions: cited from earlier work
astroglial edema = conditions: cited from earlier work
experimental head injury = conditions: cited from earlier work

Structure (SMILES)	inhibition at 0.1 µM ([1]; Conc. 10^-7 M) [%]	inhibition at 0.01 µM ([1]; Conc. 10^-8 M) [%]	inhibition at 0.001 µM ([1]; Conc. 10^-9 M) [%]	inhibition at 0.0001 µM ([1]; Conc. 10^-10 M) [%]	inhibition at 10 pM ([1]; Conc. 10^-11 M) [%]	inhibition at 1 pM ([1]; Conc. 10^-12 M) [%]	reducing mortality in clinical cases of head injury [2]	activity in in vitro assay (astroglial edema)	activity in in vivo assay (experimental head injury)
O=C(O)COc1cc2c(c(Cl)c1Cl)C1=CC(=O)CCC1(CCO)C2 (racemic) [Example 2, {[5,6-Dichloro-9a-(2-hydroxyethyl)-3-oxo-2,3,9,9a-tetrahydro-1H-fluoren-7-yl]oxy}acetic acid]	19	92	75	85	53	15	–	–	–
C=C(CC)C(=O)c1ccc(OCC(=O)O)c(Cl)c1Cl [ethacrynic acid]	–	–	–	–	–	–	effective in reducing mortality in clinical cases of head injury	exhibited activity	exhibited activity
